Data on ten compounds can be found in US20240025852A1, “T-TYPE CALCIUM CHANNEL MODULATORS AND METHODS OF USE THEREOF” (PRAXIS PRECISION MEDICINES, INC., priority 2020, published 2024).

A short description of data set [1]: Hμrel Low Clearance Assay. On the set-up: % of Control (intrinsic clearance relative to the control compound): tested at 1 µM. Particulars: human, HμRELhumanPool 96-well hepatic co-culture, human hepatic co-culture, 1 μM substrate, 0-72 hr incubation; control = geometric mean of 3 replicates. The class given is in vitro ADME, human. On the procedure: (§1) The Hμrel Low Clearance Assay was performed to determine the stability of deuterated compounds described herein and calculate changes in clearance relative to the control compound (undeuterated compound) that has the following structure:
(§2) HμRELhumanPool™ 96-well hepatic co-culture plates were media changed and cells were allowed to acclimatize at 37° C. for 20 hr. HμREL® incubation media (serum free) and test compound diluted from a 1000×DMSO stock (final substrate concentration 1 μM; final DMSO concentration 0.1%) were added to the HμREL© 96-well co-culture system at a final cell number of 30,000 cells per well to initiate the reaction. The final incubation volume was 80 μL per time point and two control compounds were included for reference (ketoprofen and prednisolone). All clearance assessments were performed in singlicate with the exception of the undeuterated control compound, which was tested in duplicate on two separate days for a total of 4 replicates. Each compound was incubated for 0, 2, 6, 24, 48 and 72 hr. The reactions were terminated by transferring 60 μL of incubate to 180 μL acetonitrile containing internal standard at the appropriate time points. The crash plates were centrifuged at 3000 rpm at 4° C. for 20 min to precipitate residual protein. Following protein precipitation, sample supernatants were combined in cassettes of up to 4 compounds and analyzed using generic LCMS/MS conditions.
(§3) LC-MS/MS chromatograms were analyzed by peak area ratio (test article peak area/internal standard peak area) and natural log transformed, and plotted against time. The slope of the line was determined to calculate elimination rate constant. Subsequently, half-life (t1/2) and intrinsic clearance (CLint) were calculated using the following equations: […]
(§4) Average clearance of the control compound was determined by taking the geometric mean of 3 of the four replicates. The fourth replicate was excluded from the average determination as an outlier.

The test system of data set [2] is HμRELhumanPool 96-well hepatic co-culture. Nature of the data set: Hμrel Low Clearance Assay. The data set is classed as in vitro ADME, human. On the set-up: % of Control (intrinsic clearance relative to the control compound): tested at 1 µM. Particulars: for Half-Life: human hepatic co-culture, 1 μM substrate, 0-72 hr incubation; for % of Control (intrinsic clearance relative to the control compound): observed CLint divided by average CLint of undeuterated control compound. How it is done: as §1, §2, §3, §4

Data set [3] deals with T1, Recombinant CYP3A4 Supersomes (Homo sapiens, UniProt P08684).
T1 construct: purchased
T1 sequence (P08684 whole entry): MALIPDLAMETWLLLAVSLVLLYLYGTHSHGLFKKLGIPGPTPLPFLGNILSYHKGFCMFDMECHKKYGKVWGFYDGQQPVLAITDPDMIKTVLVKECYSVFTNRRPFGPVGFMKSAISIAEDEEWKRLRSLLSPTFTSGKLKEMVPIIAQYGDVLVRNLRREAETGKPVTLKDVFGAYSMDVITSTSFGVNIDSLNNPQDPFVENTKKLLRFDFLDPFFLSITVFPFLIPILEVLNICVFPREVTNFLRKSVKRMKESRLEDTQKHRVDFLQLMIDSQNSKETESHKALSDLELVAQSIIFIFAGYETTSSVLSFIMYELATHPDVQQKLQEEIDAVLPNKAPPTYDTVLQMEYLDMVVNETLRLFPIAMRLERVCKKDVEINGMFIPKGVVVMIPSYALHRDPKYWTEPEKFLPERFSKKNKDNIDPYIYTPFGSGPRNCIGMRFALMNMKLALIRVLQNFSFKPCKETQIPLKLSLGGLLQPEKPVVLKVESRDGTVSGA
Nature of the data set: Recombinant CYP3A4 Clearance Assay. The data set is classed as in vitro ADME. Particulars: for % of Control (intrinsic clearance relative to the control compound): observed CLint divided by average CLint of undeuterated control compound; for Half-Life / CLint: recombinant CYP3A4 50 pmol/mL, 1 μM substrate, NADPH; for Half-Life: 0-120 minutes; for CLint: control = geometric mean of 3 replicates. On the procedure: The CYP3A4 Clearance Assay was performed to determine the stability of deuterated compounds described herein and calculate changes in clearance relative to the control compound (undeuterated compound) that has the following structure:
Recombinant CYP3A4 Supersomes were prepared in 100 mM potassium phosphate buffer (50 pmol/mL final recombinase) and 80 μL aliquots were delivered per well to 96-well reaction plates containing 10 μL/well stock working solution containing substrate at 10× final concentration in 0.1:9.9:90 DMSO:ACN:100 mM phosphate buffer. Final substrate concentration during incubation was 1 μM. Reaction mixtures were pre-incubated at 37° C. for 10 minutes, prior to addition of 10 μL/well of NADPH regenerating system to initiate the reaction (β-Nicotinamide adenine dinucleotide phosphate) or 100 mM phosphate as a buffer control.
Clearance assessments were performed for test compounds in singlicate except for the control compound, which was tested in triplicate. Incubations were maintained at 37° C. for 0, 5, 15, 30, 45, 60, 90, and 120 minutes (or 0 and 120 minutes for buffer control). The reactions were terminated with 3× volume of cold (4° C.) acetonitrile (ACN) containing 200 ng/mL tolbutamide and 200 ng/mL labetalol as internal standards (IS). The crash plates were centrifuged at 4000 rpm at 4° C. for 20 min to precipitate residual protein. Following protein precipitation, sample supernatants were harvested and 3× volume of HPLC grade water was added to each sample for chromatography purposes. Plates were sealed and shaken for 10 minutes prior to LC-MS/MS analysis using generic LCMS/MS conditions.
as §3
Average intrinsic clearance of the control compound was determined by taking the geometric mean of 3 replicates.

Take `[2H]C1([2H])CC(CNC(=O)c2cc(F)cc(Cl)c2)CC([2H])([2H])N1CC(=O)NC(C)(C([2H])([2H])[2H])C([2H])([2H])[2H]` [Compound 19, 3-chloro-5-fluoro-N-[[2,2,6,6-tetradeuterio-1-[2-oxo-2-[[2,2,2-trideuterio-1-methyl-1-(trideuteriomethyl)ethyl]amino]ethyl]-4-piperidyl]methyl]benzamide]: the hepatocyte CLint (in general, the rate of metabolic loss divided by the concentration) at 1 μM in data set [1] turned out to be 0.718 µL/min/1e6 cells. In data set [2], the Half-Life is 2580 min and the “% of Control (intrinsic clearance relative to the control compound)” value was 51.5%. Also, in data set [3], the “% of Control (intrinsic clearance relative to the control compound)” value came out at 62.2%, the Half-Life came out at 12.7 min and the CLint turned out to be 1.09 µL/min/pmol.

Turning to `[2H]C([2H])([2H])C(C)(NC(=O)CN1C([2H])([2H])C([2H])([2H])C([2H])(CNC(=O)c2cc(F)cc(Cl)c2)C([2H])([2H])C1([2H])[2H])C([2H])([2H])[2H]` [Compound 20, 3-chloro-5-fluoro-N-[[2,2,3,3,4,5,5,6,6-nonadeuterio-1-[2-oxo-2-[[2,2,2-trideuterio-1-methyl-1-(trideuteriomethyl)ethyl]amino]ethyl]-4-piperidyl]methyl]benzamide], the hepatocyte CLint at 1 μM in data set [1] turned out to be 0.803 µL/min/1e6 cells. Moreover, in data set [2], the Half-Life came out at 2300 min and the “% of Control (intrinsic clearance relative to the control compound)” value came out at 56.7%. For the same compound, in data set [3], the “% of Control (intrinsic clearance relative to the control compound)” value is recorded as 61.5%, the Half-Life was found to be 12.8 min and the CLint is 1.08 µL/min/pmol.

On to `[2H]C([2H])(C(=O)NC(C([2H])([2H])[2H])(C([2H])([2H])[2H])C([2H])([2H])[2H])N1CCC(CNC(=O)c2cc(F)cc(Cl)c2)CC1` [Compound 15, 3-chloro-N-[[1-[1,1-dideuterio-2-oxo-2-[[2,2,2-trideuterio-1,1-bis(trideuteriomethyl)ethyl]amino]ethyl]-4-piperidyl]methyl]-5-fluoro-benzamide], for which the hepatocyte CLint at 1 μM in data set [1] was determined as 1.35 µL/min/1e6 cells. In addition, in data set [2], the Half-Life is 1360 min and the “% of Control (intrinsic clearance relative to the control compound)” value was 95.4%. In data set [3], the “% of Control (intrinsic clearance relative to the control compound)” value came out at 82.9%, the Half-Life turned out to be 9.5 min and the CLint amounted to 1.46 µL/min/pmol.

`[2H]C([2H])(NC(=O)c1cc(F)cc(Cl)c1)C1CCN(CC(=O)NC(C)(C)C)CC1` [Compound 4, N-[[1-[2-(tert-butylamino)-2-oxo-ethyl]-4-piperidyl]-dideuterio-methyl]-3-chloro-5-fluoro-benzamide] displayed a hepatocyte CLint at 1 μM in data set [1] of 1.5 µL/min/1e6 cells. Further, in data set [2], the Half-Life stood at 1230 min and the “% of Control (intrinsic clearance relative to the control compound)” value is reported as 106%. Also, in data set [3], the “% of Control (intrinsic clearance relative to the control compound)” value is reported as 98.6%, the Half-Life is 8.0 min and the CLint was 1.74 µL/min/pmol.

Regarding `[2H]C1([2H])CN(CC(=O)NC(C([2H])([2H])[2H])(C([2H])([2H])[2H])C([2H])([2H])[2H])CC([2H])([2H])C1CNC(=O)c1cc(F)cc(Cl)c1` [Compound 8, 3-chloro-5-fluoro-N-[[3,3,5,5-tetradeuterio-1-[2-oxo-2-[[2,2,2-trideuterio-1,1-bis(trideuteriomethyl)ethyl]amino]ethyl]-4-piperidyl]methyl]benzamide], the hepatocyte CLint at 1 μM in data set [1] worked out at 1.28 µL/min/1e6 cells. Further, in data set [2], the Half-Life was 1440 min and the “% of Control (intrinsic clearance relative to the control compound)” value is on record as 90.5%. Also, in data set [3], the “% of Control (intrinsic clearance relative to the control compound)” value is given as 88.4%, the Half-Life came to 8.9 min and the CLint worked out at 1.56 µL/min/pmol.

With `[2H]C1([2H])CN(CC(=O)NC(C)(C([2H])([2H])[2H])C([2H])([2H])[2H])CC([2H])([2H])C1CNC(=O)c1cc(F)cc(Cl)c1` [Compound 23, 3-chloro-5-fluoro-N-[[3,3,5,5-tetradeuterio-1-[2-oxo-2-[[2,2,2-trideuterio-1-methyl-1-(trideuteriomethyl)ethyl]amino]ethyl]-4-piperidyl]methyl]benzamide], in data set [1], the hepatocyte CLint at 1 μM was found to be 0.908 µL/min/1e6 cells. In data set [2], the Half-Life amounted to 2040 min and the “% of Control (intrinsic clearance relative to the control compound)” value was 65.2%. In addition, in data set [3], the “% of Control (intrinsic clearance relative to the control compound)” value is reported as 86.2%, the Half-Life was 9.1 min and the CLint was 1.52 µL/min/pmol.

For `[2H]C1([2H])CN(CC(=O)NC(C)(C)C)CC([2H])([2H])C1CNC(=O)c1cc(F)cc(Cl)c1` [Compound 3, N-[[1-[2-(tert-butylamino)-2-oxo-ethyl]-3,3,5,5-tetradeuterio-4-piperidyl]methyl]-3-chloro-5-fluoro-benzamide], in data set [1], the intrinsic metabolic clearance (hepatocyte CLint) at 1 μM turned out to be 1.47 µL/min/1e6 cells. Moreover, in data set [2], the Half-Life was 1260 min and the “% of Control (intrinsic clearance relative to the control compound)” value worked out at 104%. In addition, in data set [3], the “% of Control (intrinsic clearance relative to the control compound)” value turned out to be 82.3%, the Half-Life came to 9.6 min and the CLint came to 1.45 µL/min/pmol.

In turn, `[2H]C([2H])(C(=O)NC(C)(C)C([2H])([2H])[2H])N1CCC(CNC(=O)c2cc(F)cc(Cl)c2)CC1` [Compound 21, 3-chloro-N-[[1-[1,1-dideuterio-2-oxo-2-[(2,2,2-trideuterio-1,1-dimethyl-ethyl)amino]ethyl]-4-piperidyl]methyl]-5-fluoro-benzamide] registered a hepatocyte CLint at 1 μM in data set [1] of 1.46 µL/min/1e6 cells. Also, in data set [2], the Half-Life came to 1270 min and the “% of Control (intrinsic clearance relative to the control compound)” value is 103%. For the same compound, in data set [3], the “% of Control (intrinsic clearance relative to the control compound)” value worked out at 94.4%, the Half-Life stood at 8.3 min and the CLint stood at 1.66 µL/min/pmol.

In the case of `[2H]C([2H])(NC(=O)c1cc(F)cc(Cl)c1)C1CCN(CC(=O)NC(C)(C)C([2H])([2H])[2H])CC1` [Compound 10, 3-chloro-N-[dideuterio-[1-[2-oxo-2-[(2,2,2-trideuterio-1,1-dimethyl-ethyl)amino]ethyl]-4-piperidyl]methyl]-5-fluoro-benzamide], the hepatocyte CLint at 1 μM in data set [1] is 0.91 µL/min/1e6 cells. Moreover, in data set [2], the Half-Life stood at 2030 min and the “% of Control (intrinsic clearance relative to the control compound)” value was found to be 64.3%. In data set [3], the “% of Control (intrinsic clearance relative to the control compound)” value is recorded as 81.1%, the Half-Life came to 9.7 min and the CLint was 1.43 µL/min/pmol.

Turning to `[2H]C1([2H])CC(CNC(=O)c2cc(F)cc(Cl)c2)CC([2H])([2H])N1CC(=O)NC(C)(C)C([2H])([2H])[2H]` [Compound 22, 3-chloro-5-fluoro-N-[[2,2,6,6-tetradeuterio-1-[2-oxo-2-[(2,2,2-trideuterio-1,1-dimethyl-ethyl)amino]ethyl]-4-piperidyl]methyl]benzamide], the hepatocyte CLint at 1 μM in data set [1] turned out to be 0.872 µL/min/1e6 cells. Further, in data set [2], the Half-Life was 2120 min and the “% of Control (intrinsic clearance relative to the control compound)” value worked out at 62.6%. In addition, in data set [3], the “% of Control (intrinsic clearance relative to the control compound)” value is on record as 87.5%, the Half-Life was found to be 9.0 min and the CLint was determined as 1.54 µL/min/pmol.
